In patent US9682925B2, “Cyclopropaneamine compound” (TAKEDA PHARMACEUTICAL COMPANY LIMITED, priority 2011, dated 2017):
pIC50: −log10 of the molar value. Structures can show the parent of a compound that is named as a salt.

Assays:
Assay type in all cases: biochemical
human LSD1(171-852) = molecular target: T1, human LSD1(171-852) (Homo sapiens, UniProt O60341); test: Measurement of LSD1 inhibitory activity (time-resolved fluorescence, biotin-histone H3 mono methylated K4 peptide); details: read-out: LSD1 IC50 value
T1 construct: to give hLSD1(171-852) purified product; made in house; host or cells: Escherichia coli C43(DE3) pLysS
Experimental: When the turbidity reached 600 Klett units, the culture temperature was changed to 16° C., IPTG having a final concentration of 0.5 mM was added to induce expression, and the cells were cultured further for 21 hr. The culture medium was centrifuged at 9,000 g for 10 min, and Escherichia coli pellets were recovered.
Escherichia coli pellets in 9 L of the culture medium were suspended in 1340 mL of an extraction buffer (PBS, 5% (V/V) Glycerol), and 6700 units of Benzonase (Merck) were added. Using Branson ultrasonic disintegrator, the suspension was disrupted by ultrasonication for 3 min, and centrifuged at 33,000 g for 20 min, and the supernatant was recovered.
(5) Measurement of LSD1 Inhibitory Activity
After reaction at room temperature for 20 min, 1 mM 2-PCPA solution (5 μL) was added to terminate the reaction. A detection solution (800 mM potassium fluoride, 0.1% BSA) containing europium-labeled antihistone H3 antibody (Wako Pure Chemical Industries, Ltd.) and Streptavidin-XL665 (Cisbio) was further added by 5 μL, and the mixture was left standing for 60 min. A time-resolved fluorescence (excitation 320 nm, emission 615 nm, 665 nm) was measured by Envision (PerkinElmer). The LSD1 inhibitory rate (%) of the test compound was calculated by the following formula. inhibitory rate (%)=(1−(test compound count−blank)÷(control−blank)×100
The count of the LSD1 enzyme reaction mixture under compound non-addition conditions is indicated as control, and the count under compound non-addition and LSD1 enzyme non-addition conditions is indicated as blank.

MAO-A = molecular target: T2, MAO-A (Homo sapiens, UniProt P21397); test: Measurement of MAO-A inhibitory activity (MAO-Glo Assay)
T2 construct: purchased Sigma-Aldrich Co. LLC
T2 sequence (P21397 1-527): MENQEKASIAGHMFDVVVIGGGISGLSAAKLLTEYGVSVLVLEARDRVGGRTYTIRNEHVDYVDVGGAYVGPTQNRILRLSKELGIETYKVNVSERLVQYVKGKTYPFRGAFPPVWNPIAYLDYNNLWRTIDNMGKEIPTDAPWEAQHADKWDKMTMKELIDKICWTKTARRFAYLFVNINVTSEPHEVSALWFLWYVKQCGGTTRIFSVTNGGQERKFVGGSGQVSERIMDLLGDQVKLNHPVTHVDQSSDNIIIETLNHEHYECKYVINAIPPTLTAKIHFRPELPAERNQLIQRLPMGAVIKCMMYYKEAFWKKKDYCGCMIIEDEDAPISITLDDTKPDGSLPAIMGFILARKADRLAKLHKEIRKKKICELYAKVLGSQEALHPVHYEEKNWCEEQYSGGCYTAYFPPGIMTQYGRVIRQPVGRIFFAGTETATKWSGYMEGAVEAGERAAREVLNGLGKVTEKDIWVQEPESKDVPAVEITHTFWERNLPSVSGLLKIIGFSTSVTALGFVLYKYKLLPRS
Experimental: (1) Measurement of MAO-A Inhibitory Activity
The MAO-A inhibitory activity evaluation described below followed the protocol of MAO-Glo (registered trademark) Assay of Promega KK.
(§1) A test compound dissolved in 4% DMSO was added by 12.5 μL to 25 μL reaction solution (100 mM HEPES (pH 7.5), 5% glycerol) containing 400 ng of MAO-A enzyme (Sigma-Aldrich Co. LLC.), and the mixture was reacted at room temperature for 10 min. MAO substrate (Promega KK) (160 μM) was added by 12.5 μL to start the reaction. After reaction at room temperature for 60 min, Luciferine detection reagent (Promega KK) (50 μL) was added to terminate the reaction. After reaction at room temperature for 20 min with stirring, the luminescence was measured by Envision (PerkinElmer). The MAO-A inhibitory rate (%) of the test compound was calculated by the following formula. inhibitory rate (%)=(1−(test compound count−blank)÷(control−blank)×100
The count of the MAO-A enzyme reaction mixture under compound non-addition conditions is indicated as control, and the count under compound non-addition and MAO-A enzyme non-addition conditions is indicated as blank.

MAO-B = molecular target: T3, MAO-B (Homo sapiens, UniProt P27338); test: Measurement of MAO-B inhibitory activity (MAO-Glo Assay)
T3 construct: purchased Sigma-Aldrich Co. LLC
T3 sequence (P27338 1-520): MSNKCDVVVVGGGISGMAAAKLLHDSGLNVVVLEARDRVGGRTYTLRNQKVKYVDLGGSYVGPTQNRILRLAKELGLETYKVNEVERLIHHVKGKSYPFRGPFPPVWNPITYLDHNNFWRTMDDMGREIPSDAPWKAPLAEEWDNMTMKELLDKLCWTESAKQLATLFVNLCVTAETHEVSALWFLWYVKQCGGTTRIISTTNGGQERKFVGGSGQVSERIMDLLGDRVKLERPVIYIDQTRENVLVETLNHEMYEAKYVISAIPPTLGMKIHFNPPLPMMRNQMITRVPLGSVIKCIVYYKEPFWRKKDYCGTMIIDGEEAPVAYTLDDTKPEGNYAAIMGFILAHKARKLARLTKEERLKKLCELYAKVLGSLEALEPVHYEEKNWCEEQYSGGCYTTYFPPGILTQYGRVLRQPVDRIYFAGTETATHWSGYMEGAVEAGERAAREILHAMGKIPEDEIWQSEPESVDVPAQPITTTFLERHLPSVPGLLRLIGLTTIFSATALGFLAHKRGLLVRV
Experimental: (2) Measurement of MAO-B Inhibitory Activity
The MAO-B inhibitory activity evaluation described below followed the protocol of MAO-Glo (registered trademark) Assay of Promega KK.
as §1, with “glycerol, 10% DMSO)” for “glycerol)”, “MAO-B” for “MAO-A”, “(16” for “(160”
The count of the MAO-B enzyme reaction mixture under compound non-addition conditions is indicated as control, and the count under compound non-addition and MAO-B enzyme non-addition conditions is indicated as blank.

| SMILES | pIC50 (human LSD1(171-852)) | pIC50 (MAO-A) | pIC50 (MAO-B) |
| --- | --- | --- | --- |
| O=C(Nc1ccc([C@@H]2C[C@H]2NCc2ccccc2)cc1)c1ccccc1 (relative stereo) [Example 1, N-{4-[trans-2-(benzylamino)cyclopropyl]phenyl}benzamide] | > 7.00 | 5.42 | 5.01 |
| CCCCCCCCN[C@@H]1C[C@H]1c1ccc(NC(=O)c2ccccc2)cc1 (relative stereo) [Example 2, N-{4-[trans-2-(octylamino)cyclopropyl]phenyl}benzamide] | 6.70 | 5.03 | < 5.00 |
| O=C(Nc1ccc([C@@H]2C[C@H]2NCc2ccccc2)cc1)c1cccc(Br)c1 (relative stereo) [Example 3, N-{4-[trans-2-(benzylamino)cyclopropyl]phenyl}-3-bromobenzamide] | > 7.00 | 5.36 | 5.05 |
| CCCCCCCCN[C@@H]1C[C@H]1c1ccc(NC(=O)c2cccc(Br)c2)cc1 (relative stereo) [Example 4, 3-bromo-N-{4-[trans-2-(octylamino)cyclopropyl]phenyl}benzamide] | 6.62 | < 5.00 | < 5.00 |
| CN1CCC(N[C@@H]2C[C@H]2c2ccc(NC(=O)c3cccc(Br)c3)cc2)CC1 (relative stereo) [Example 5, 3-bromo-N-(4-{trans-2-[(1-methylpiperidin-4-yl)amino]cyclopropyl}phenyl)benzamide] | > 7.00 | 5.11 | < 5.00 |
| COc1ccc(CN[C@@H]2C[C@H]2c2ccc(NC(=O)c3cccc(Br)c3)cc2)cc1OC (relative stereo) [Example 6, 3-bromo-N-(4-{trans-2-[(3,4-dimethoxybenzyl)amino]cyclopropyl}phenyl)benzamide] | > 7.00 | < 5.00 | < 5.00 |
| Cc1cccc(C(=O)Nc2ccc([C@@H]3C[C@H]3NCc3ccccc3)cc2)c1 (relative stereo) [Example 7, N-{4-[trans-2-(benzylamino)cyclopropyl]phenyl}-3-methylbenzamide] | > 7.00 | 5.25 | < 5.00 |
| O=C(Nc1ccc([C@@H]2C[C@H]2NCc2ccccc2)cc1)c1cccc(C(F)(F)F)c1 (relative stereo) [Example 8, N-{4-[trans-2-(benzylamino)cyclopropyl]phenyl}-3-(trifluoromethyl)benzamide] | > 7.00 | 5.24 | < 5.00 |
| CC(C)(C)c1cccc(C(=O)Nc2ccc([C@@H]3C[C@H]3NCc3ccccc3)cc2)c1 (relative stereo) [Example 9, N-{4-[trans-2-(benzylamino)cyclopropyl]phenyl}-3-tert-butylbenzamide] | 6.55 | < 5.00 | < 5.00 |
| O=C(Nc1ccc([C@@H]2C[C@H]2NCc2ccccc2)cc1)c1cccc(Oc2ccccc2)c1 (relative stereo) [Example 10, N-{4-[trans-2-(benzylamino)cyclopropyl]phenyl}-3-phenoxybenzamide] | 6.85 | 5.48 | < 5.00 |
| O=C(Nc1ccc([C@@H]2C[C@H]2NCc2ccccc2)cc1)c1cccc(OCc2ccccc2)c1 (relative stereo) [Example 11, N-{4-[trans-2-(benzylamino)cyclopropyl]phenyl}-3-(benzyloxy)benzamide hydrochloride] | 6.82 | 5.62 | < 5.00 |
| O=C(Nc1ccc([C@@H]2C[C@H]2NCc2cccnc2)cc1)c1ccccc1 (relative stereo) [Example 12, N-(4-{trans-2-[(pyridin-3-ylmethyl)amino]cyclopropyl}phenyl)-benzamide bis(trifluoroacetate)] | > 7.00 | 5.33 | < 5.00 |
| O=C(Nc1ccc([C@@H]2C[C@H]2NCc2cccs2)cc1)c1ccccc1 (relative stereo) [Example 13, N-(4-{trans-2-[(thiophen-2-ylmethyl)amino]-cyclopropyl}-phenyl)benzamide] | > 7.00 | < 5.00 | < 5.00 |
| O=C(Nc1ccc([C@@H]2C[C@H]2NCCCc2ccccc2)cc1)c1ccccc1 (relative stereo) [Example 14, N-(4-{trans-2-[(3-phenyl-propyl)amino]-cyclopropyl}-phenyl)benzamide] | > 7.00 | < 5.00 | < 5.00 |
| O=C(Nc1ccc([C@@H]2C[C@H]2NCC2CC2)cc1)c1cc(C(F)(F)F)ccc1F (relative stereo) [Example 73, N-(4-{trans-2-[(cyclopropylmethyl)amino]cyclopropyl}phenyl)-2-fluoro-5-(trifluoromethyl)benzamide hydrochloride] | > 7.00 | – | 5.09 |
| Cn1cc(C(=O)Nc2ccc([C@@H]3C[C@H]3NCC3CC3)cc2)cn1 (relative stereo) [Example 163, N-(4-{trans-2-[(cyclopropylmethyl)amino]cyclopropyl}phenyl)-1-methyl-1H-pyrazole-4-carboxamide hydrochloride] | – | < 5.00 | < 5.00 |
| O=C(Nc1ccc([C@H]2C[C@@H]2NCC2CC2)cc1)c1ccc(-c2ccccc2)cc1 (single isomer, unassigned) [Example 165, N-(4-{(1R,2S) or (1S,2R)-2-[(cyclopropylmethyl)amino]cyclopropyl}phenyl)biphenyl-4-carboxamide hydrochloride] | – | < 5.00 | < 5.00 |
| O=C(Nc1ccc([C@@H]2C[C@H]2NCC2CC2)cc1)c1ccc(-c2ccccc2)cc1 (single isomer, unassigned) [Example 166, N-(4-{(1S,2R) or (1R,2S)-2-[(cyclopropylmethyl)amino]cyclopropyl}phenyl)biphenyl-4-carboxamide hydrochloride] | – | < 5.00 | < 5.00 |
